The values below come from patent EP2161024A1, “Combination product for the treatment of cancer” (Universitätsklinikum Hamburg-Eppendorf, priority 2008, dated 2010).

Molecules are shown by their SMILES.

Assay [1] has as its system Zelllinie H69. Description: XTT cell proliferation (growth) test with H69 cells. It counts as cell-based. The conditions noted are these: single agent (alleinige Gabe), Figuren 5a, 5b. A general note: Formazan colour is commonly taken as a measure of viable cells.
Assay [2] deals with Zelllinie H82. Description: XTT cell proliferation (growth) test with H82 cells. The conditions noted are these: for Zellwachstum: single agent (alleinige Gabe), H82 cells, Figur 7.
Assay [3] concerns OH1-Zellen. Description: XTT cell proliferation (growth) test with OH1 cells. The conditions noted are these: single agent (alleinige Gabe), 1 µM to 0,001 µM, 72 h incubation, Figur 2.

`COc1ccc(CCN2CCC(Nc3nc4ccccc4n3Cc3ccc(F)cc3)CC2)cc1` [Astemizol, 1-[(4-Fluorphenyl)methyl]-N-[1-[2-(4-methoxyphenyl)ethyl]-4-piperidyl]benzoimidazol-2-amin]: the “Wachstum der Zellen” value in assay [1] is reported as “nicht zu einer Verringerung des Wachstums”. For the same compound, in assay [2] (Homo sapiens, NCI-H82, read-out: Hemmung der Proliferation), the inhibition at 5 µM amounted to 50%. In addition, the Zellwachstum result in assay [2] is “kaum Auswirkungen auf das Zellwachstum”. For the same compound, the “Wachstum der OH1-Zellen” value in assay [3] is given as “nicht zu einer Verringerung des Wachstums”.

As for `CC(C)c1c(C(=O)Nc2ccccc2)c(-c2ccccc2)c(-c2ccc(F)cc2)n1CC[C@@H](O)C[C@@H](O)CC(=O)O` [Atorvastatin, (3R,5R)-7-[2-(4-Fluorphenyl)-5-isopropyl-3-phenyl-4-(phenylcarbamoyl)pyrrol-1-yl]-3,5-dihydroxyheptansäure], in assay [1], the “Wachstum der Zellen” value is recorded as “nicht zu einer Verringerung des Wachstums”. Also, the Zellwachstum entry in assay [2] was “kaum Auswirkungen auf das Zellwachstum”. The “Wachstum der OH1-Zellen” value in assay [3] is recorded as “nicht zu einer Verringerung des Wachstums”.

Regarding `CCC(C)C(=O)OC1CC(C)C=C2C=CC(C)C(CCC3CC(O)CC(=O)O3)C21` (stereo not drawn) [Lovastatin, [8-[2-(4-hydroxy-6-oxo-oxan-2-yl)ethyl]-3,7-dimethyl-1,2,3,7,8,8a-hexahydronaphthalen-1-yl]-2-methylbutanoat], the Zellwachstum result in assay [2] is given as “kaum Auswirkungen auf das Zellwachstum”. In addition, the “Wachstum der OH1-Zellen” value in assay [3] is listed as “nicht zu einer Verringerung des Wachstums”.
